Source: patent US20200345721A1, “Device for Deterring Abuse of Drugs” (EIGHTY EIGHT PHARMA, INC., priority 2019, published 2020)
Where a name gives a salt, the structure may show the parent alone. Read-outs that look alike come from different tables or passages of the source.

What was measured:
animals = settings: cited from earlier work
[1] = Naltrexone recovered from IR and ER tablets, 23 mg/mL solutions (Example 4); settings: 23 mg/ml ethanol/water solution, lower proportion of ethanol
Experimental: To compare formulations of Naltrexone and Naltrexone HCl which will deposit 3.6-9.6 mg of Naltrexone onto small IR tablets, small extended release (“ER”) tablets and large ER tablets, Naltrexone (23 mg/ml) and Naltrexone HCl (23 mg/ml) solutions were used. Six (6) small IR tablets (Homeopathy Blank 5 Grain, Lactose, Lot #: 07090710H3, Exp. 08/23), six (6) small ER Tablets (Mucus Relief Guaifenesin Extended-Release Tablets, 600 mg, Lot #: F07210, Exp. 04/20), and three (3) large ER tablets (Mucus Relief Guaifenesin Extended-Release Tablets, 1200 mg, Lot #: F08474, Exp. 05/20) were tested. Tablets were placed in test tubes or kept in their blister packaging and spiked with a 23 mg/mL spiking solution containing either Naltrexone Base or Naltrexone HCl. Small tablets (IR and ER) were divided into two groups of 3 and coated with a solution prepared with either Naltrexone base (23 mg/ml) or Naltrexone HCl (23 mg/ml). Large ER tablets were spiked with Naltrexone base solution only while remaining in their original blister packaging. Each tablet remained in solution for a period of 2, 6 or 10 minutes before removal and testing form Naltrexone. The large ER tablets spiked with Naltrexone NCl were not completed due to time limitations

[2] = Solubility of naltrexone in ethanol/water; type: physicochemical
Experimental: A solution of naltrexone in 60% Ethanol/40% water at a concentration of 19 mg/ml was achieved without precipitation.
To determine a formulation which will deposit 3.6-9.6 mg of Naltrexone onto small IR tablets within a specified period of time, the ratio of ethanol to water was adjusted to increase solubility of Naltrexone.

guinea pig = settings: cited from earlier work
humans = settings: 800 mg daily for up to one week, human subjects; cited from earlier work
rat = settings: cited from earlier work
[3] = tested on: pharmacologic effects of 25 mg of intravenously administered heroin; settings: cited from earlier work
[4] = Naltrexone HCl solubility, HPLC analysis; type: physicochemical; settings: for solubility at 2 h / solubility at 1 h / solubility: thermodynamic from solid; for solubility at 1 h: sample 50 mg/mL
Experimental: To determine the solubility of Naltrexone HCl in solutions of 100% water or 60%/40% Ethanol/water, solutions of Naltrexone HCl were prepared at 50 mg/mL and 100 mg/mL in 100% water or 60%/40% ethanol/water for a total of 4 solutions. Solutions were vortex mixed, placed on a mechanical shaker and evaluated every 30 minutes for complete dissolution. Once fully dissolved, each solution was prepared for HPLC by diluting to 2 mg/mL in methanol and 0.1M phosphoric acid and analyzed on an HPLC.
The 50 mg/mL samples were fully dissolved into solution following 1 hour on the mechanical shaker with periodic vortex mixing. The 100 mg/mL solution prepared in the ethanol/water mixture was dissolved after a total of 2 hours shaking with periodic vertex mixing. The 100 mg/mL solution in 100% water was also sonicated. HPLC results are included in Table 3.

Structure (SMILES)	cause of mortalities (animals; high-dose administration, animals)	stability of the solution [1]	concentration achieved without precipitation ([2]; 60% Ethanol/40% water) [µg/mL]	final concentration of solution, titrated with water until precipitates formed ([2]; 75:25 ethanol to water) [mg/mL]	oral LD50 (guinea pig)	signs produced by high doses (animals; high doses, generally >1,000 mg/kg)	evidence of toxicity (humans)	oral LD50 (rat)	duration of blockade of pharmacologic effects of heroin ([3]; 50 mg naltrexone hydrochloride vs 25 mg intravenous heroin) [hours]	duration of blockade ([3]; doubling the dose of naltrexone hydrochloride) [h]	duration of blockade ([3]; tripling the dose of naltrexone hydrochloride)	time on mechanical shaker until fully dissolved ([4]; 50 mg/mL samples, periodic vortex mixing) [h]	total shaking time until dissolved ([4]; 100 mg/mL in ethanol/water mixture) [h]	solubility at 2 h ([4]; 60%/40% ethanol/water, aqueous with cosolvent or surfactant or cyclodextrin, 60%/40% ethanol/water, read-out: solubility (soluble up to)) [mg/mL]	solubility at 1 h ([4]; 60:40 ethanol:water, aqueous with cosolvent or surfactant or cyclodextrin, 60:40 Ethanol:water, HPLC, read-out: Solubilized Concentration) [mg/mL]	solubility at 2 h ([4]; 60:40 ethanol:water, aqueous with cosolvent or surfactant or cyclodextrin, sample 100 mg/mL, 60:40 Ethanol:water, HPLC, read-out: Solubilized Concentration) [mg/mL]	solubility ([4]; 100% water, water, 100% water, read-out: solubility (soluble up to)) [mg/mL]	solubility at 1 h ([4]; 100% water, water, 100% water, HPLC, read-out: Solubilized Concentration) [mg/mL]	solubility ([4]; 100% water, water, sample 100 mg/mL, 100% water, HPLC, read-out: Solubilized Concentration) [mg/mL]
O=C1CC[C@@]2(O)[C@H]3Cc4ccc(O)c5c4[C@@]2(CCN3CC2CC2)[C@H]1O5 [Naltrexone Base, naltrexone]	tonic-clonic convulsions and/or respiratory failure	comes out of solution over time	19000	37.5	–	–	–	–	–	–	–	–	–	–	–	–	–	–	–
O=C1CC[C@@]2(O)[C@H]3Cc4ccc(O)c5c4[C@@]2(CCN3CC2CC2)[C@H]1O5 [Naltrexone HCl, naltrexone hydrochloride]	–	–	–	–	1,490 mg/kg	salivation, depression/reduced activity, tremors, and convulsions	no evidence of toxicity	1,450 mg/kg	≤ 24	48	about 72 hours	1	2	≥ 100	48.6	96.1	≥ 100	49	96.9
